Measured values from US4976960A, “Food supplements” (Bar Ilan University, priority 1986, dated 1990).
Where “and” joins values, the source holds several entries; their conditions need not be identical. Identical values can stand only once.

Columns and labels:
peroxides in the skin = experiment: Peroxide level in skin of adult mice (TBA test), topical application; type: in vivo; conditions: 0.1% in Oil of Olay
Excerpt: Samples of lotions and appropriate controls were applied to mice or rat skin for a fixed period. The application was done once a day. Experiments were terminated by killing the animal, peeling the skin and freezing it in liquid nitrogen. Samples of the frozen skin were homogenized in 0.2M phosphate buffer, pH 6.5. After centrifugation, the supernatant was collected and analyzed for the peroxide value using the TBA (thiobarbituric acid) test as described by Sinnhuber et al, Food Res. 23:620 (1958).
In these experiments adult mice (2 months old) were treated as described in Example 2. The grown mice were shaved before applying the lotions to the skin. In this experiment the antioxidant was dissolved in Oil of Olay. Mice were sacrificed after 21 days.

prostacyclin (PGI2) = experiment: Endogenous release of prostacyclin by isolated aorta segments of fed rabbits; type: in vivo; conditions: after 30 days, vs basal vitamin E deficient diet
pyruvate oxidase = experiment: Pyruvate oxidase activity in rabbits fed supplemented vitamin E deficient diet; type: in vivo; conditions: after 30 days, vs basal vitamin E deficient diet
Fibroblasts = experiment: Lipid peroxidation in fibroblast culture, TBA assay; type: cell-based; conditions: 0.01%, 3 days of incubation, 37° C.
Protocol: The possibility that the present antioxidant may serve as a substitute for vitamin E was also tested in tissue culture. Fibroblasts were grown in an appropriate medium for three days at a temperature of 37° C., (a) in absence of additive (control), (b) in presence of 0.01% vitamin E, and (c) in presence of 0.01% present (crude) antioxidant.

[1] = tested on: liver microsomal NADPH oxidase; experiment: Liver microsomal NADPH oxidase activity in rabbits fed supplemented vitamin E deficient diet; type: in vivo; conditions: after 30 days, vs basal vitamin E deficient diet
[2] = tested on: peroxide level in the skin; experiment: Malondialdehyde (MDA) level in epidermis of UV-irradiated hairless mice; type: in vivo, hairless mice (SKH/Hr); conditions: for % decrease in MDA, mean / MDA, Treated Irradiated Site, mean / % decrease in MDA / MDA, Treated Irradiated Site: 5% in ethanol
Excerpt: In this experiment, alpha-tocopheryl acetate and the present antioxidant were applied to the skin of hairless mice and the level of peroxide in the skin after exposure to UV radiation compared to a control group. The detailed procedure was as follows.
The malondialdehyde (MDA) assay is based on the methods of Dixit et al [J. Invest. Derm., 81: 369-75 (1983)], Tappel and Summerfield ["Measurement of and protection from in vivo lipid peroxidation", Free Radicals in Biology Vol. IV (1980). Academic Press, New York (W. A. Pryor, ed.)] and Placer et al [Analytical Biochemistry, 16:359-64 (1966)].
6-8week old hairless mice [(SKH/Hr); Skin and Cancer Hospital, Temple University, Philadelphia] were anesthetized using a 1:10 dilution of Sodium Pentobarbital (50 mg./ml., Elkins-Sinn. Inc.). The UV light sources were 2 fluorescent lamps (Westinghouse PS-40) and light intensity was measured with an Optometer (United Detector Technology) using a UVB filter. The tissue was homogenized using a Heat Systems model W-10 Sonicator, filtration and centrifugation of the homogenates being effected through a 2.5 micron Millipore filter and a Sorvall RC-5 Speed Centrifuge, respectively. The buffer consisted of 0.1M potassium phosphate, pH 7.4 with 10^-4 M magnesium chloride.
The protein assay is based on the method given in Clinical Chemistry, 23: 908 (1977). The modified biuret reagent contains per liter 3.8 g. CuSO4, 6.7 g. EDTA, 17.5 g. glycine, 14.0 g. NaCI and 40.0 g. NaOH. Absorbance was measured on an MS-2 Spectrophotometer (Micromedic Systems, Inc.).
20 mice were anesthetized with Sodium Pentobarbital (0.5 mg./10 g. body weight). Two rectangular areas, 6.25 cm.^2 each, were outlined on the dorsal and ventral sides of each mouse. The dorsal areas were designated as left dorsal (site A) and right dorsal (site B). The ventral areas were designated as left ventral (site C) and right ventral (site D). The products were applied in an aliquot of 75 ul. to the designated sites. The application protocol was randomized so that a given treatment was not restricted to the same area of the skin. One site on each dorsal and ventral side remained untreated to serve as the irradiated controls. 15 minutes after product application, the mice were exposed to 110 millijoules of UV light per cm.^2 of skin area over a period of 220 seconds per side. The mice were placed so that the area to be irradiated was directly under the light source while the areas on the other side were protected from the radiation. The mice were irradiated on both the dorsal and ventral sides. After UV treatment, the mice were returned to separate cages to recover from the anesthesia.
4 hours after irradiation, the mice were sacrificed by cervical dislocation. The skin was removed and stretched over a styrofoam block. The epidermis was separated from the dermis by heating the skin in a water bath for 60 seconds at 54° C. and then scraping the surface with a scalpel. Each 6.25 cm. area of epidermis was placed in a separate 1.5 ml. Eppendorf vial with 200 ul. of buffer. The pieces of epidermis were homogenized by sonication for 2×30 seconds, with a 10 second pause between each 30 second period to prevent heat buildup. The vial was kept in an ice bath.
After homogenization, 1 ml. of buffer was added to each vial and vortexed. The homogenate was filtered through a 2.5 micron filter, twice. An aliquot containing 1.4-1.8 mg. of homogenate protein was placed into test tubes with 0.6 ml. 10% trichloroacetic acid and 1.2 ml. 0.5% (w/v) 2-thiobarbituric acid. The test tube mixture was well vortexed and then placed in a boiling water bath for 10 minutes, the top of the test tube being covered with a marble which acted as a condensor. The tubes were cooled with running tap water and centrifuged for 15 minutes at 30,000×g. Blanks were prepared by placing 0.1M phosphate buffer in test tubes. All assays were done in duplicate. […]

[3] = combined dorsal and ventral mean
[4] = ventral, individual samples 6-10

Molecule: Cc1cc(C(C)(C)C)c(O)c(C(C)(C)C)c1 [BHT, butylated hydroxy toluene]
- effect on the level of peroxides in the skin (peroxides in the skin): no reduction of the level of peroxides was observed

Molecule: vitamin E
- endogenous release of prostacyclin (PGI2), detected as 6-keto-PGF1-alpha (prostacyclin (PGI2)): significantly increased
- pyruvate oxidase activity (enzymatic lipid peroxidation) (pyruvate oxidase): decreased
- Peroxide value (TBA assay) (Fibroblasts): 0.015
- liver microsomal NADPH oxidase activity (enzymatic lipid peroxidation) [1]: decreased

Molecule: CC(=O)Oc1c(C)c(C)c2c(c1C)CCC(C)(CCC[C@H](C)CCC[C@H](C)CCCC(C)C)O2 (stereo partly drawn) [alp. tocopheryl acetate, alpha-tocopheryl acetate]
- effectiveness in reducing the level of peroxides in the skin ([2]; 1% antioxidant in Oil of Olay vs 5% alpha-tocopheryl acetate in ethanol): significantly less effective
- % decrease in MDA, mean [2, 3]: 27.82%
- MDA, Treated Irradiated Site, mean [2, 3]: 0.168 nM MDA/mg. protein
- % decrease in MDA, mean ([2]; dorsal mean): 27.26%
- MDA, Treated Irradiated Site, mean ([2]; dorsal mean): 0.165 nM MDA/mg. protein
- % decrease in MDA ([2]; dorsal, individual samples 1-5): 34.78% and 39.77% and 22.92% and 12.75% and 26.10%
- MDA, Treated Irradiated Site ([2]; dorsal, individual samples 1-5): 0.105 nM MDA/mg. protein and 0.103 nM MDA/mg. protein and 0.074 nM MDA/mg. protein and 0.308 nM MDA/mg. protein and 0.235 nM MDA/mg. protein
- % decrease in MDA, mean ([2]; ventral mean): 28.38%
- MDA, Treated Irradiated Site, mean ([2]; ventral mean): 0.172 nM MDA/mg. protein
- % decrease in MDA [2, 4]: 42.41% and 28.95% and 23.17% and 22.39% and 25.00%
- MDA, Treated Irradiated Site [2, 4]: 0.148 nM MDA/mg. protein and 0.189 nM MDA/mg. protein and 0.305 nM MDA/mg. protein and 0.027 nM MDA/mg. protein

Molecule: COc1ccc(O)c(C(C)(C)C)c1 [BHA, butylated hydroxy anisole]
- effect on the level of peroxides in the skin (peroxides in the skin): no reduction of the level of peroxides was observed

Molecule: Cc1c(C)c2c(c(C)c1O)CCC(C)(CCCC(C)CCCC(C)CCCC(C)C)O2 (stereo not drawn) [alpha tocopherol]
- effect on the level of peroxides in the skin (peroxides in the skin): no reduction of the level of peroxides was observed
